Experimental data taken from patent publication US20090054319A1, “Methods and Compositions for the Treatment of Hypertension and Gastrointestinal Disorders” (MICROBIA, INC., priority 2005, published 2009).
Bridges are numbered along the chain shown (N, C = ends). Where no end group is shown, it is not given here.

How the values were obtained:
chymotrypsin [1] = biological target: T1, chymotrypsin (Bos taurus, UniProt P00766, DEL14-15/DEL147-148); experiment: T84 cGMP assay to assess guanylin activity after a chymotrypsin digestion assay (guanylin degradation assay); assay type: biochemical, bovine; conditions: T84 cells, FIG. 1
T1 construct: purchased Sigma C6423
Method: Since guanylin is susceptible to digestion by chymotrypsin, chymotrypsin activity can be assayed based on guanylin cleavage. […] From this stock, six (6) 500 μl aliquots were prepared in 2 ml Eppendorf tubes and labeled “Control”, “T0”, “T15”, “T30”, “T60”, and “T180”, with “T_” representing timepoints, in minutes. 5 μl of a 10 mM chymostatin (Sigma, C7268) stock (5 mg of chymostatin resuspended in 824 μl of DMSO) was added to the “Control” samples and all samples were incubated for 5 minutes at 30° C. Chymostatin inhibits chymotrypsin activity and this sample served as a negative control. Next, 20 μl of a chymotrypsin (Sigma, C6423) enzyme solution (0.01 mg/ml bovine chymotrypsin enzyme in 1 mM HCl, 2 mM Calcium Chloride) were added to the samples and mixed by inversion. Samples are incubated at 30° C. […] Determination of sensitivity to digestion by chymotrypsin was determined by LCMS analysis and by in vitro activity in the T84 cGMP assays described below.
The ability of guanylin to activate the intestinal GC-C receptor was assessed in an assay employing the T84 human colon carcinoma cell line (American Type Culture Collection (Bethesda, Md.). For the assays cells were grown to confluency in 24-well culture plates with a 1:1 mixture of Ham's F12 medium and Dulbecco's modified Eagle's medium (DMEM), supplemented with 5% fetal calf serum and were used at between passages 54 and 60. […]

chymotrypsin [2] = conditions: cited from earlier work
[3] = test system: intestinal fluid secretion; conditions: suckling mouse model; Santos-Neto et al 2003 Pharm & Toxicol 92:114; cited from earlier work

## CC(C)C[C@H](NC(=O)[C@@H](NC(=O)N[C@@H](Cc1ccccc1)C(=O)O)C1CCNC(=N)N1)C(=O)N[C@H](C=O)Cc1ccccc1 (stereo partly drawn) [chymostatin, N—(Na-Carbonyl-[S,S]-a-(2-Iminohexahydro-4-pyrimidyl)glycine)-X-Phe-al)-Phe where X is Leu, Val or Ile]
Chymotrypsin [1]; chymostatin present during chymotrypsin digestion of guanylin
  guanylin stimulated cGMP activity when chymotrypsin inhibitor present: retained
Chymotrypsin [2]
  chymotrypsin-mediated inactivation of guanylin: can be prevented
[3]
  guanylin-induced intestinal fluid secretion: required in order to observe guanylin-induced intestinal fluid secretion

## bovine chymotrypsin enzyme (Sigma, C6423)
Guanylin (Sigma, G-116)
  guanylin degradation assay: loss of guanylin-stimulated cGMP activity and LC/MS of guanylin processing: guanylin stimulated cGMP activity decreases over time in the presence of chymotrypsin

## guanylin: intestinal peptide that stimulates chloride secretion; mature protein has 15 amino acids; agonist of the GC-C receptor (PGTCEICAYAACTGC; disulfide 4-12, 7-15; UniProt Q02747 101-115, looked up)
Chymotrypsin [1]; in the presence of chymotrypsin, timepoints 0-180 min at 30° C.
  guanylin stimulated cGMP activity: decreases over time
Chymotrypsin [2]; Greenberg et al. J Investig Med 45:276-82, 1997
  cleavage of guanylin by chymotrypsin: chymotrypsin can cleave guanylin
